Measurements as given in ChEMBL document CHEMBL1140830, “Ergoline derivatives as highly potent and selective antagonists at the somatostatin sst 1 receptor” (Bioorg Med Chem Lett, 2008).

Legend:
[1] = target: Somatostatin receptor type 1 (Rattus norvegicus, UniProt P28646); assay: Displacement of [125I]SRIF14 from sst1 receptor in rat cortex
[2] = target: Somatostatin receptor type 2 (Rattus norvegicus, UniProt P30680); assay: Displacement of [125I][Tyr3]octreotide from sst2 receptor in rat cortex
Chain of Somatostatin receptor type 2 (Rattus norvegicus, UniProt P30680) (P30680 whole entry): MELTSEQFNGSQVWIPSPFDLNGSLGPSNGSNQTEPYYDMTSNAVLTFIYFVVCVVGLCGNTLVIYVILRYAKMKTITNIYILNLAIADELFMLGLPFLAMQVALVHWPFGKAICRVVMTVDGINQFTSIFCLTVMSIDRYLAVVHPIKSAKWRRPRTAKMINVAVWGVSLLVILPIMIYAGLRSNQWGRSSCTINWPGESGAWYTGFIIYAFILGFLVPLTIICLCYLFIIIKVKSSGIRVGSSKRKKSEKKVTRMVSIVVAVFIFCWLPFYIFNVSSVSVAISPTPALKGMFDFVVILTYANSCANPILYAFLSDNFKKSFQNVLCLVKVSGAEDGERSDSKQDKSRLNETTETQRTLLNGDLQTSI

[3] = target: T1, Somatostatin receptor type 1 (Homo sapiens, UniProt P30872); assay: Antagonist activity at human recombinant sst1 receptor in CCl39 cells assessed as SRIF14-induced inhibition of forskolin-stimulated adenylate cyclase activity; format: functional, cell-based
T1 sequence (P30872 whole entry): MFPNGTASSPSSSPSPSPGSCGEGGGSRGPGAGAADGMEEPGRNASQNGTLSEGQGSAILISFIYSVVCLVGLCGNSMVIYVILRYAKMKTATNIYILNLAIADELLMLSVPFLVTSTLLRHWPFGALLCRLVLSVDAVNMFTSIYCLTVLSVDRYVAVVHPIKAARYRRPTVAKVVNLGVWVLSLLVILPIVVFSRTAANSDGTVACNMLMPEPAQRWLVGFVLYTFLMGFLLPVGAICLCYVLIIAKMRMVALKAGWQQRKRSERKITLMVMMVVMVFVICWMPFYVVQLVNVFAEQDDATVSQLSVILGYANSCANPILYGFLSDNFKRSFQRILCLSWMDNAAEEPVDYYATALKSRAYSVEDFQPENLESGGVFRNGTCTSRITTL

[4] = target: T1, Somatostatin receptor type 1; assay: Antagonist activity at human recombinant sst1 receptor assessed as inhibition of SRIF28-induced luciferase activity; format: functional
[5] = target: T1, Somatostatin receptor type 1; assay: Binding affinity to human recombinant sst1 receptor
[6] = target: Somatostatin receptor type 2 (Homo sapiens, UniProt P30874); assay: Binding affinity to human recombinant sst2 receptor
Chain of Somatostatin receptor type 2 (Homo sapiens, UniProt P30874) (P30874 whole entry): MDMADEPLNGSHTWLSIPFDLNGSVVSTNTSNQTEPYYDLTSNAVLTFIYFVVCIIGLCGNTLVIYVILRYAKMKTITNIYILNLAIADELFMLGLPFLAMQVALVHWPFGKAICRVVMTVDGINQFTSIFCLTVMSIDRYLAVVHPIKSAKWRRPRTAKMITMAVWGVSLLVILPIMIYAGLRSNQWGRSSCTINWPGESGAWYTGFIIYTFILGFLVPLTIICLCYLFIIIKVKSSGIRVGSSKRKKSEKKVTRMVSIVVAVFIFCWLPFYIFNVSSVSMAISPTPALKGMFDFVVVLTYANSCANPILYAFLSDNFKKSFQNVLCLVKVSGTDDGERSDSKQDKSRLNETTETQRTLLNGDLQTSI

[7] = target: Somatostatin receptor type 3 (Homo sapiens, UniProt P32745); assay: Binding affinity to human recombinant sst3 receptor
Chain of Somatostatin receptor type 3 (P32745 whole entry): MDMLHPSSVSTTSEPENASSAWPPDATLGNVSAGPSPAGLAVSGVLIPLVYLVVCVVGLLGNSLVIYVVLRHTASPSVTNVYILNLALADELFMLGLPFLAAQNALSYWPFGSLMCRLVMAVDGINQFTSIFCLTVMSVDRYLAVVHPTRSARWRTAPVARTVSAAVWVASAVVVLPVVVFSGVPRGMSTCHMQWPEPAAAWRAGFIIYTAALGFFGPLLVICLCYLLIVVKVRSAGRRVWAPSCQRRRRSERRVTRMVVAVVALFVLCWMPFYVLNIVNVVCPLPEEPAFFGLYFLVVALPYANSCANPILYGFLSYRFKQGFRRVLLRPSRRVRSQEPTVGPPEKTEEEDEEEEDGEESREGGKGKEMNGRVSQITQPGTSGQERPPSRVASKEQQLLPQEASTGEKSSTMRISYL

[8] = target: Somatostatin receptor type 4 (Homo sapiens, UniProt P31391); assay: Binding affinity to human recombinant sst4 receptor
Chain of Somatostatin receptor type 4 (P31391 whole entry): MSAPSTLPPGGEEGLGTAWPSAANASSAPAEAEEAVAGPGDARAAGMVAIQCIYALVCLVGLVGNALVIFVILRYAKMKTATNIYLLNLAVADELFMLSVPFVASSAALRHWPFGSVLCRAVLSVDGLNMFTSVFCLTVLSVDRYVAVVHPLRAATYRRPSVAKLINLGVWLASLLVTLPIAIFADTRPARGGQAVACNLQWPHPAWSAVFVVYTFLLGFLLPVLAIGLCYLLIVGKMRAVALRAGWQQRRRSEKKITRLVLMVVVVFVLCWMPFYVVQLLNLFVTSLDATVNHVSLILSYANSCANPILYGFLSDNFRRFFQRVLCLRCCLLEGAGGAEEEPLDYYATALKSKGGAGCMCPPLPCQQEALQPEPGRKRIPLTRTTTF

[9] = target: Somatostatin receptor type 5 (Homo sapiens, UniProt P35346); assay: Binding affinity to human recombinant sst5 receptor
Chain of Somatostatin receptor type 5 (P35346 whole entry): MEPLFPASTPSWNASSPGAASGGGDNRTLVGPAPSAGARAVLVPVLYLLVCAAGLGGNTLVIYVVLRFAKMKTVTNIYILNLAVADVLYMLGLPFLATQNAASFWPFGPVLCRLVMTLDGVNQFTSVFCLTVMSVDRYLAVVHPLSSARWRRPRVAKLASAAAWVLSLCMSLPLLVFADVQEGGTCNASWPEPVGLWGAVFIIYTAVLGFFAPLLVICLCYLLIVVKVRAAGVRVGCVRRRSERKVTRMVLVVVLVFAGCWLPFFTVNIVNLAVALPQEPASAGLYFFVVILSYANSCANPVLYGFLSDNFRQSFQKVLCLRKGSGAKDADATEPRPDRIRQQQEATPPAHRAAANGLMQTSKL

[10] = target: D(2) dopamine receptor (Homo sapiens, UniProt P14416); assay: Binding affinity to human dopamine D2 receptor
Chain of D(2) dopamine receptor (P14416 whole entry): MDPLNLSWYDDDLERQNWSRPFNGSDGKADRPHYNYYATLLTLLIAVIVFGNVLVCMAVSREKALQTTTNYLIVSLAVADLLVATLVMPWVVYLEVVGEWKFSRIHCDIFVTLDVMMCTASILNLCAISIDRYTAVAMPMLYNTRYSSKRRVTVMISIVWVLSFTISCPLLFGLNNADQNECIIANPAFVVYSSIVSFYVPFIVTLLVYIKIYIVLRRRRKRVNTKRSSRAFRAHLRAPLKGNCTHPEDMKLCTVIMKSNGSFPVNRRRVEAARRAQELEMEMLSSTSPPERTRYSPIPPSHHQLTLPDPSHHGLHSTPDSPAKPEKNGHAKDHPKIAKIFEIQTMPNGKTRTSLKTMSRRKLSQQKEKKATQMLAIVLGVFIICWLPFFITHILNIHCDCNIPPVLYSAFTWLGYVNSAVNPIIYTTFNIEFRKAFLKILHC

[11] = target: T2, D(4) dopamine receptor (Homo sapiens, UniProt P21917); assay: Binding affinity to human dopamine D4 receptor
T2 sequence (P21917 whole entry): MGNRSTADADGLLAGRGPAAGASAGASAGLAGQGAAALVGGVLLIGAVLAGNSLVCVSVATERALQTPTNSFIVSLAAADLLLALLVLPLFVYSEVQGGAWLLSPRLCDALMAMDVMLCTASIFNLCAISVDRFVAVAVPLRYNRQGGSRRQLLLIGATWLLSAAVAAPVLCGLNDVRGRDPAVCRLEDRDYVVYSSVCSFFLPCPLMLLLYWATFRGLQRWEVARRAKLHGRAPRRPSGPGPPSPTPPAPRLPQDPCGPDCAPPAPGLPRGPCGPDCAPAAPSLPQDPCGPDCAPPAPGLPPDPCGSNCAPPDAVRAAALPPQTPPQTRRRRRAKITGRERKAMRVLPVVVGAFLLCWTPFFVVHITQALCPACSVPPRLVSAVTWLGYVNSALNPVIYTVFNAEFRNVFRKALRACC

[12] = target: T3, 5-hydroxytryptamine receptor 1A (Homo sapiens, UniProt P08908); assay: Binding affinity to human 5HT1A receptor
T3 sequence (P08908 whole entry): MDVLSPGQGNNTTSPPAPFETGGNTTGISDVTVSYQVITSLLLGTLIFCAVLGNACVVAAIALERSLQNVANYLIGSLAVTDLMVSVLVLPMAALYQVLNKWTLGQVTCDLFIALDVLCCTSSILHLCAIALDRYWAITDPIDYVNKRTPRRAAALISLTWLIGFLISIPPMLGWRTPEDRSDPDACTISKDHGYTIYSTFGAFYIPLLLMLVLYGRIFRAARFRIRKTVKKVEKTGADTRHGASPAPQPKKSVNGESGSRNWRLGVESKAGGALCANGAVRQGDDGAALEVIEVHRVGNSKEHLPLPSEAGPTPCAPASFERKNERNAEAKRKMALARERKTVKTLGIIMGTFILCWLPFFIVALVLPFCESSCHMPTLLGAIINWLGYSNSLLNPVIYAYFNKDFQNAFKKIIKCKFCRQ

[13] = Oral bioavailability in rat; format: ADME, organism-based; conditions: in vivo
[14] = Ratio of drug level in brain to plasma in rat at 30 umol/kg after 10 mins; format: ADME; conditions: brain and plasma
[15] = Ratio of drug level in brain to plasma in rat at 30 umol/kg after 24 hrs; format: ADME; conditions: brain and plasma

Chain of Somatostatin receptor type 1 (Rattus norvegicus, UniProt P28646) (P28646 whole entry): as the sequence (P30872 whole entry) above, with S8P, S11T, P16S, S20G, G25V, G26C, A32S, A45S, T385A, T389S counted along it

SMILES: CN1C[C@H](C(=O)N2CCN(c3cccc(=O)n3C)CC2)C[C@@H]2c3cccc4[nH]cc(c34)C[C@H]21
- Kd [1]: 0.759 nM
- Kd [2]: 7760 nM

SMILES: COCCN1C[C@H](C(=O)N2CCN(c3ccccn3)CC2)C[C@@H]2c3cccc4[nH]c(Br)c(c34)C[C@H]21
- Kd [1]: 1480 nM

SMILES: CN1C[C@H](C(=O)N2CCN(c3ccc([N+](=O)[O-])cc3)CC2)C[C@@H]2c3cccc4[nH]c(Br)c(c34)C[C@H]21
- Kd [1]: 1.35 nM
- Kd [2]: 7240 nM

SMILES: CN1C[C@H](C(=O)N2CCN(c3ccc4nsnc4n3)CC2)C[C@@H]2c3cccc4[nH]c(Cl)c(c34)C[C@H]21
- Kd [1]: 0.24 nM
- Kd [2]: 3890 nM

SMILES: CCCCN1C[C@H](C(=O)N2CCN(c3ccccn3)CC2)C[C@@H]2c3cccc4[nH]c(Br)c(c34)C[C@H]21
- Kd [1]: 1150 nM

SMILES: CN1C[C@H](C(=O)N2CCN(c3ccc(Cl)cc3)CC2)C[C@@H]2c3cccc4[nH]c(Cl)c(c34)C[C@H]21
- Kd [1]: 4.17 nM
- Kd [2]: 5890 nM

SMILES: CN1C[C@H](C(=O)N2CCN(c3ccc(F)c(F)c3)CC2)C[C@@H]2c3cccc4[nH]c(Cl)c(c34)C[C@H]21
- Kd [1]: 0.603 nM
- Kd [2]: 12900 nM

SMILES: CN1C[C@H](C(=O)N2CCN(c3ccc4nsnc4n3)CC2)C[C@@H]2c3cccc4[nH]c(Br)c(c34)C[C@H]21
- Kd [1]: 0.372 nM
- Kd [2]: 4570 nM

SMILES: CN1C[C@H](C(=O)N2CCN(c3cccc(=O)n3C)CC2)C[C@@H]2c3cccc4[nH]c(Cl)c(c34)C[C@H]21
- Kd [1]: 0.389 nM
- Kd [2]: 49000 nM

SMILES: CSc1[nH]c2cccc3c2c1C[C@@H]1[C@@H]3C[C@@H](C(=O)N2CCN(c3ccccn3)CC2)CN1C
- Kd [1]: 2.4 nM
- Kd [2]: 8510 nM

SMILES: CN1C[C@H](C(=O)N2CCN(c3ccc(Cl)cc3)CC2)C[C@@H]2c3cccc4[nH]cc(c34)C[C@H]21
- Kd [1]: 19.5 nM
- Kd [2]: 2190 nM

SMILES: CN1C[C@H](C(=O)N2CCN(c3ccc([N+](=O)[O-])cc3)CC2)C[C@@H]2c3cccc4[nH]cc(c34)C[C@H]21
- Kd [1]: 3.89 nM
- Kd [2]: 3160 nM

SMILES: CN1C[C@H](C(=O)N2CCN(c3ccccn3)CC2)C[C@@H]2c3cccc4[nH]c(O)c(c34)C[C@H]21
- Kd [1]: 240 nM
- Kd [2]: 8510 nM

SMILES: CN1C[C@H](C(=O)N2CCN(c3ccccn3)CC2)C[C@@H]2c3cccc4[nH]c(Br)c(c34)C[C@H]21
- Kd [1]: 4.47 nM
- Kd [2]: 16600 nM

SMILES: CN1C[C@H](C(=O)N2CCN(c3ccccn3)CC2)C[C@@H]2c3cccc4[nH]c(S(C)(=O)=O)c(c34)C[C@H]21
- Kd [1]: 309 nM
- Kd [2]: 7760 nM

SMILES: CN1C[C@H](C(=O)N2CCN(c3ccccn3)CC2)C[C@@H]2c3cccc4[nH]cc(c34)C[C@H]21
- Kd [1]: 14.1 nM
- Kd [2]: 17800 nM

SMILES: CN1C[C@H](C(=O)N2CCN(c3ccc(Cl)cc3)CC2)C[C@@H]2c3cccc4[nH]c(Br)c(c34)C[C@H]21
- Kd [1]: 5.5 nM
- Kd [2]: 2000 nM

SMILES: CN1C[C@H](C(=O)N2CCN(c3cccc(=O)n3C)CC2)C[C@@H]2c3cccc4[nH]c(Br)c(c34)C[C@H]21 [ERGOLINE]
- pKb [3]: 7.85
- pKb [4]: 8.85

SMILES: O=C([C@@H]1C[C@@H]2c3cccc4[nH]c(Br)c(c34)C[C@H]2N(CCCO)C1)N1CCN(c2ccccn2)CC1
- Kd [1]: 2340 nM

SMILES: CCN1C[C@H](C(=O)N2CCN(c3ccc(F)c(F)c3)CC2)C[C@@H]2c3cccc4[nH]c(Br)c(c34)C[C@H]21
- Kd [1]: 0.977 nM
- Kd [2]: 13200 nM

SMILES: CN1C[C@H](C(=O)N2CCN(c3ccc(F)c(F)c3)CC2)C[C@@H]2c3cccc4[nH]c(Br)c(c34)C[C@H]21
- Kd [1]: 0.49 nM
- Kd [2]: 8130 nM

SMILES: CN1C[C@H](C(=O)N2CCN(c3ccc4nonc4c3)CC2)C[C@@H]2c3cccc4[nH]c(Cl)c(c34)C[C@H]21
- Kd [1]: 0.389 nM
- Kd [2]: 5130 nM

SMILES: CN1C[C@@H](C(=O)N2CCN(c3ccc4nonc4c3)CC2)C[C@H]2c3cccc4[nH]c(Br)c(c34)C[C@@H]21
- Kd [1]: 182 nM
- Kd [2]: 12600 nM
- Kd [5]: 501 nM
- Kd [6]: 3890 nM
- Kd [7]: 7240 nM
- Kd [8]: 5620 nM
- Kd [9]: 23400 nM

SMILES: CC(C)CCN1C[C@H](C(=O)N2CCN(c3ccccn3)CC2)C[C@@H]2c3cccc4[nH]c(Br)c(c34)C[C@H]21
- Kd [1]: 1740 nM

SMILES: CN1C[C@H](C(=O)N2CCN(c3ccccn3)CC2)C[C@@H]2c3cccc4[nH]c(Cl)c(c34)C[C@H]21
- Kd [1]: 12.9 nM

SMILES: CCn1c(N2CCN(C(=O)[C@@H]3C[C@@H]4c5cccc6[nH]c(Br)c(c56)C[C@H]4N(C)C3)CC2)cccc1=O
- Kd [1]: 0.282 nM
- Kd [2]: 26300 nM

SMILES: CN1C[C@H](C(=O)N2CCN(c3ccccn3)CC2)C[C@@H]2c3cccc4[nH]c([S+](C)[O-])c(c34)C[C@H]21 (stereo partly specified)
- Kd [1]: 2630 nM
- Kd [2]: 17800 nM

SMILES: CN1C[C@H](C(=O)N2CCN(c3ccc([N+](=O)[O-])cc3)CC2)C[C@@H]2c3cccc4[nH]c(Cl)c(c34)C[C@H]21
- Kd [1]: 1.26 nM
- Kd [2]: 8910 nM

SMILES: CN1C[C@H](C(=O)N2CCN(c3ccccn3)CC2)C[C@@H]2c3cccc4[nH]c(I)c(c34)C[C@H]21
- Kd [1]: 16.6 nM
- Kd [2]: 5620 nM

SMILES: CN1C[C@H](C(=O)N2CCN(c3ccc4nsnc4n3)CC2)C[C@@H]2c3cccc4[nH]cc(c34)C[C@H]21
- Kd [1]: 1.02 nM
- Kd [2]: 3020 nM

SMILES: O=C([C@H]1CN[C@@H]2Cc3c(Br)[nH]c4cccc(c34)[C@H]2C1)N1CCN(c2ccccn2)CC1
- Kd [1]: 170 nM
- Kd [2]: 7940 nM

SMILES: CN1C[C@@H](C(=O)N2CCN(c3cccc(=O)n3C)CC2)C[C@H]2c3cccc4[nH]c(Br)c(c34)C[C@@H]21
- Kd [1]: 417 nM
- Kd [2]: 20400 nM
- Kd [5]: 1950 nM
- Kd [6]: 9330 nM
- Kd [7]: 5370 nM
- Kd [8]: 8130 nM
- Kd [9]: 69200 nM

SMILES: CCn1c(N2CCN(C(=O)[C@@H]3C[C@@H]4c5cccc6[nH]c(Cl)c(c56)C[C@H]4N(C)C3)CC2)cccc1=O
- Kd [1]: 0.38 nM
- Kd [2]: 12000 nM

SMILES: CN1C[C@H](C(=O)N2CCN(c3ccc4nonc4c3)CC2)C[C@@H]2c3cccc4[nH]c(Br)c(c34)C[C@H]21
- Kd [1]: 0.372 nM
- Kd [2]: 6460 nM
- Kd [5]: 1.23 nM
- Kd [6]: 6760 nM
- Kd [7]: 2340 nM
- Kd [8]: 3630 nM
- Kd [9]: 6460 nM
- Kd [10]: 126 nM
- Kd [11]: 77.6 nM
- Kd [12]: 28.2 nM
- pKb [3]: 7.62
- pKb [4]: 9.42
- bioavailability [13]: 48%
- Kp at 10 min [14]: 0.7
- Kp at 24 h [15]: 1.7
